In patent US8324383B2, “Methods of making polymorphs of benzoate salt of 2-[[6-[(3R)-3-amino-1-piperidinyl]-3,4-dihydro-3-methyl-2,4-dioxo-1(2H)-pyrimidinyl]methyl]-benzonitrile” (Takeda Pharmaceutical Company Limited, priority 2006, dated 2012):
“Also recorded” adds a separate entry of the source. Counter-ions that a name gives are not always drawn. Like-named read-outs stand apart in the source and are kept apart here. Values belong to the molecule of their own block, whether it stands above or below them.

Assays:
Type in all cases: physicochemical
[1] = Stress studies (relative humidity / temperature), solid form by XRPD; conditions: for Result (solid form by XRPD after stress): glassy material
Description: Vapor Stress (VS) Experiments: Form A was dispensed into a small vial, which was placed, uncapped, in a larger vial containing a diffusing solvent. The larger vial was sealed and stored at ambient temperature. Samples were also stressed in ovens at elevated temperatures and under different relative humidity conditions.
X-ray powder diffraction analyses were performed using a Shimadzu XRD-6000 X-ray powder diffractometer using Cu Kα radiation. The instrument is equipped with a long fine focus X-ray tube. The tube voltage and amperage were set to 40 kV and 40 mA, respectively. The divergence and scattering slits were set at 1° and the receiving slit was set at 0.15 mm. Diffracted radiation was detected by a NaI scintillation detector. A θ-2θ continuous scan at 3°/min (0.4 sec/0.02° step) from 2.5 to 40 °2θ was used. A silicon standard was analyzed to check the instrument alignment. Data were collected and analyzed using XRD-6000 v. 4.1. Samples were prepared for analysis by placing them in an aluminum holder with silicon insert.

[2] = Moisture sorption/desorption analysis (VTI SGA-100); conditions: for moisture sorption behaviour in words: moisture sorption/desorption analysis; for solid form of the sample after moisture sorption/desorption (XRPD): post moisture sorption/desorption sample
Description: Moisture sorption/desorption data were collected on a VTI SGA-100 Vapor Sorption Analyzer. Sorption and desorption data were collected over a range of 5% to 95% relative humidity (RH) at 10% RH intervals under a nitrogen purge. Samples were not dried prior to analysis. Equilibrium criteria used for analysis were less than 0.0100% weight change in 5 minutes, with a maximum equilibration time of 3 hours if the weight criterion was not met. Data were not corrected for the initial moisture content of the samples. NaCl and PVP were used as calibration standards.

[3] = Solubility estimates in test solvents (aliquot addition, visual inspection); conditions: room temperature, approximate
Description: A weighed sample of Compound I was treated with aliquots of the test solvent at room temperature. The mixture was sonicated between aliquot additions to facilitate dissolution. Complete dissolution of the test material was determined by visual inspection. Solubilities were estimated from these experiments based on the total solvent used to provide complete dissolution. The actual solubility may be greater than those calculated because of the use of solvent aliquots that were too large or due to a slow rate of dissolution. […] If complete dissolution was achieved as a result of only one aliquot addition, the solubility is expressed as “greater than.”

[4] = Thermal analysis (DSC, TGA, melting point) - thermal stability; conditions: solid phase
Description: Differential scanning calorimetry was performed using a TA Instruments differential scanning calorimeter 2920. The sample was placed into an aluminum DSC pan, and the weight accurately recorded. The pan was covered with a lid and then crimped. The sample cell was equilibrated at ambient temperature and heated under a nitrogen purge at a rate of 10° C./min, up to a final temperature of 350° C. Indium metal was used as the calibration standard. Reported temperatures are at the transition maxima.
Thermogravimetric analyses were performed using a TA Instruments 2950 thermogravimetric analyzer. Each sample was placed in an aluminum sample pan and inserted into the TG furnace. The furnace was first equilibrated at ambient temperature, then heated under nitrogen at a rate of 10° C./min, up to a final temperature of 350° C. Nickel and Alumel™ were used as the calibration standards.
Hot stage microscopy was performed using a Linkam hot stage mounted on a Leica DM LP microscope. Samples were observed using a 20× objective with a lambda plate with crossed polarizers. Samples were sandwiched between two coverslips and visually observed as the stage was heated. Images were captured using a SPOT Insight™ color digital camera with SPOT Software v. 3.5.8. The hot stage was calibrated using sulfapyridine and vanillin USP melting point standards.

Structure (SMILES): Cn1c(=O)cc(N2CCC[C@@H](N)C2)n(Cc2ccccc2C#N)c1=O.O=C(O)c1ccccc1 [Compound 1924-83-05]
Result (solid form by XRPD after stress) ([1]; stress 40° C., 9 days): form A

Structure (SMILES): Cn1c(=O)cc(N2CCC[C@@H](N)C2)n(Cc2ccccc2C#N)c1=O.O=C(O)c1ccccc1 [Compound 1924-83-06]
Result (solid form by XRPD after stress) ([1]; stress 79% RH/40° C., 9 days): form A

Structure (SMILES): Cn1c(=O)cc(N2CCC[C@@H](N)C2)n(Cc2ccccc2C#N)c1=O.O=C(O)c1ccccc1 [Compound 1966-27-01]
Result (solid form by XRPD after stress) ([1]; stress 79% RH/60° C., 1 hr): form A

More lines, main results first:

Result (solid form by XRPD after stress) ([1]; stress 79% RH/60° C., 3 hrs): form A
Structure (SMILES): Cn1c(=O)cc(N2CCC[C@@H](N)C2)n(Cc2ccccc2C#N)c1=O.O=C(O)c1ccccc1 [Compound 1966-27-02]

Weight chg (%) ([2]; Sample RH 5.25, 25.00 °C, 151.0 min): −0.953% | weight gain ([2]; between 5% and 95% RH): about 6.5% | weight loss ([2]; between 85% and 95% RH): about 5% | Weight chg (%) ([2]; desorption, Sample RH 5.06, 24.99 °C, 2238.3 min): −2.007% | Weight chg (%) ([2]; desorption, Sample RH 15.16, 24.99 °C, 2221.4 min): −1.980% | Weight chg (%) ([2]; desorption, Sample RH 24.87, 24.99 °C, 2199.9 min): −1.946% | Weight chg (%) ([2]; desorption, Sample RH 34.87, 24.99 °C, 2081.7 min): −1.737% | Weight chg (%) ([2]; desorption, Sample RH 45.08, 25.01 °C, 1894.1 min): −1.208% | Weight chg (%) ([2]; desorption, Sample RH 55.16, 25.00 °C, 1706.6 min): −0.421% | Weight chg (%) ([2]; desorption, Sample RH 65.12, 24.98 °C, 1517.0 min): 0.655% | Weight chg (%) ([2]; desorption, Sample RH 75.25, 24.98 °C, 1327.5 min): 1.908% | Weight chg (%) ([2]; desorption, Sample RH 85.49, 24.98 °C, 1139.9 min): 3.348% | initial weight loss ([2]; from ambient conditions to 5% RH): approximately 1% | moisture sorption behaviour in words [2]: very hygroscopic | Weight chg (%) ([2]; sorption, Sample RH 14.81, 25.00 °C, 197.3 min): −0.456% | Weight chg (%) ([2]; sorption, Sample RH 24.80, 24.99 °C, 253.1 min): 0.025% | Weight chg (%) ([2]; sorption, Sample RH 34.93, 24.98 °C, 329.5 min): 0.569% | Weight chg (%) ([2]; sorption, Sample RH 44.84, 24.99 °C, 508.3 min): 1.669% | Weight chg (%) ([2]; sorption, Sample RH 54.90, 24.98 °C, 603.1 min): 3.680% | Weight chg (%) ([2]; sorption, Sample RH 64.85, 24.97 °C, 655.1 min): 5.782% | Weight chg (%) ([2]; sorption, Sample RH 74.54, 24.98 °C, 723.7 min): 8.432% | Weight chg (%) ([2]; sorption, Sample RH 84.54, 24.98 °C, 764.6 min): 10.125% | Weight chg (%) ([2]; sorption, Sample RH 94.62, 24.95 °C, 952.3 min): 5.474% | Weight chg (%) ([2]; start, Sample RH 53.89, 24.98 °C, 0.1 min): 0.000% | weight gain ([2]; under 85% RH): 10%
Structure (SMILES): Cn1c(=O)cc(N2CCC[C@@H](N)C2)n(Cc2ccccc2C#N)c1=O [amorphous Form 1, benzoate salt of 2-[[6-[(3R)-3-amino-1-piperidinyl]-3,4-dihydro-3-methyl-2,4-dioxo-1(2H)-pyrimidinyl]methyl]-benzonitrile]
solid form of the sample after moisture sorption/desorption (XRPD) [2]: matched form A; also recorded: tentatively identified as containing form A

solubility ([3]; ethanol, organic solvent or mixture, thermodynamic from solid, solvent EtOH, read-out: Solubility): < 3000 µg/mL | solubility ([3]; methanol, organic solvent or mixture, thermodynamic from solid, solvent MeOH, read-out: Solubility): 13000 µg/mL | solubility ([3]; organic solvent or mixture, thermodynamic from solid, solvent CAN, read-out: Solubility): < 1000 µg/mL | solubility ([3]; organic solvent or mixture, thermodynamic from solid, solvent CH2Cl2, read-out: Solubility): < 3000 µg/mL | solubility ([3]; organic solvent or mixture, thermodynamic from solid, solvent DMF, read-out: Solubility): 6000 µg/mL | solubility ([3]; organic solvent or mixture, thermodynamic from solid, solvent EtOAc, read-out: Solubility): < 3000 µg/mL | solubility ([3]; organic solvent or mixture, thermodynamic from solid, solvent IPA, read-out: Solubility): < 1000 µg/mL | solubility ([3]; organic solvent or mixture, thermodynamic from solid, solvent MEK, read-out: Solubility): 3000 µg/mL | solubility ([3]; organic solvent or mixture, thermodynamic from solid, solvent MIBK, read-out: Solubility): < 3000 µg/mL | solubility ([3]; organic solvent or mixture, thermodynamic from solid, solvent THF, read-out: Solubility): < 1000 µg/mL | solubility ([3]; organic solvent or mixture, thermodynamic from solid, solvent acetone, read-out: Solubility): < 3000 µg/mL | solubility ([3]; organic solvent or mixture, thermodynamic from solid, solvent dioxane, read-out: Solubility): < 1000 µg/mL | solubility ([3]; solvent CH2Cl2, listed as Compound I Form A): <3000 µg/mL | solubility ([3]; solvent EtOAc, listed as Compound I Form A): <3000 µg/mL | solubility ([3]; solvent EtOH, listed as Compound I Form A): <3000 µg/mL | solubility ([3]; solvent MIBK, listed as Compound I Form A): <3000 µg/mL | solubility ([3]; solvent acetone, listed as Compound I Form A): <3000 µg/mL | solubility ([3]; thermodynamic from solid, solvent water, read-out: Solubility): 8000 µg/mL | Weight chg (%) ([2]; RH 5.18%, 25.20 °C, 14.1 min): 0.002% | weight loss ([2]; between 9% and 95% RH): about 0.05% | Weight chg (%) ([2]; desorption, RH 4.82%, 25.20 °C, 163.7 min): −0.004% | Weight chg (%) ([2]; desorption, RH 14.97%, 25.21 °C, 153.7 min): 0.032% | Weight chg (%) ([2]; desorption, RH 24.96%, 25.22 °C, 146.7 min): 0.035% | Weight chg (%) ([2]; desorption, RH 34.97%, 25.21 °C, 139.7 min): 0.008% | Weight chg (%) ([2]; desorption, RH 45.01%, 25.22 °C, 131.7 min): 0.012% | Weight chg (%) ([2]; desorption, RH 55.13%, 25.21 °C, 123.7 min): 0.014% | Weight chg (%) ([2]; desorption, RH 65.04%, 25.21 °C, 114.7 min): 0.016% | Weight chg (%) ([2]; desorption, RH 75.06%, 25.21 °C, 105.7 min): 0.017% | Weight chg (%) ([2]; desorption, RH 85.20%, 25.21 °C, 97.0 min): 0.019% | initial weight gain ([2]; from ambient conditions to 55% RH): approximately 0.035% | moisture sorption behaviour in words [2]: variable hydrate | solid form of the sample after moisture sorption/desorption (XRPD) [2]: form A | Weight chg (%) ([2]; sorption, RH 14.96%, 25.22 °C, 21.1 min): 0.001% | Weight chg (%) ([2]; sorption, RH 24.97%, 25.20 °C, 28.2 min): 0.001% | Weight chg (%) ([2]; sorption, RH 35.05%, 25.20 °C, 35.2 min): 0.002% | Weight chg (%) ([2]; sorption, RH 44.89%, 25.20 °C, 42.2 min): 0.004% | Weight chg (%) ([2]; sorption, RH 54.85%, 25.19 °C, 51.2 min): 0.035% | Weight chg (%) ([2]; sorption, RH 64.93%, 25.21 °C, 60.2 min): 0.039% | Weight chg (%) ([2]; sorption, RH 74.86%, 25.20 °C, 69.2 min): 0.041% | Weight chg (%) ([2]; sorption, RH 84.87%, 25.21 °C, 78.2 min): 0.045% | Weight chg (%) ([2]; sorption, RH 94.56%, 25.21 °C, 87.2 min): 0.049% | Weight chg (%) ([2]; start, RH 9.14%, 25.20 °C, 0.1 min): 0.000% | thermally stable (temperature) [4]: above 172 °C
Structure (SMILES): Cn1c(=O)cc(N2CCC[C@@H](N)C2)n(Cc2ccccc2C#N)c1=O [Form A, benzoate salt of 2-[[6-[(3R)-3-amino-1-piperidinyl]-3,4-dihydro-3-methyl-2,4-dioxo-1(2H)-pyrimidinyl]methyl]-benzonitrile]
phase change upon RH stress (XRPD) ([1]; various RH conditions at room temperature, several weeks): none of these samples had undergone a phase change
